In ChEMBL document CHEMBL3593203, “The twin drug approach for novel nicotinic acetylcholine receptor ligands” (Bioorg Med Chem, 2015):

Columns and labels:
[1] = target: T1, Neuronal acetylcholine receptor; alpha4/beta2 (Rattus norvegicus, UniProt P09483+P12390); assay: Displacement of [3H]-epibatidine from Sprague-Dawley rat brain alpha4beta2 nicotine acetylcholine receptor after 90 mins by radioligand displacement assay
[2] = target: T2, Neuronal acetylcholine receptor subunit alpha-7 (Rattus norvegicus, UniProt Q05941); assay: Displacement of [3H]-MLA from Sprague-Dawley rat brain alpha7 nicotine acetylcholine receptor after 90 mins by radioligand displacement assay
T2 sequence (Q05941 whole entry): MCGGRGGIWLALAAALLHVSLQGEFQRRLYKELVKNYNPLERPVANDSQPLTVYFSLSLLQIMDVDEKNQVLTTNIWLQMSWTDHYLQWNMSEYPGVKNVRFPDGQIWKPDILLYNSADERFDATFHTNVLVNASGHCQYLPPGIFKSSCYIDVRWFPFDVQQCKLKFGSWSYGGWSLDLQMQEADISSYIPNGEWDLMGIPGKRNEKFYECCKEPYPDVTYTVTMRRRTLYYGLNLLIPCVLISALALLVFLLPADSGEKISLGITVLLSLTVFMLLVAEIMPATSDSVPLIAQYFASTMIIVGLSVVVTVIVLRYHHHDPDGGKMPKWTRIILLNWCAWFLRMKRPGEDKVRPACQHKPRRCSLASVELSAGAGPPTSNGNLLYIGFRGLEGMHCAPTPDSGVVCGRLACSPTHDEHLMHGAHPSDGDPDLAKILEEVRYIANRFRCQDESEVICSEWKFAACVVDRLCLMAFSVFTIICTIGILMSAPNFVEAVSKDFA

[3] = Displacement of Torpedo californica electroplax muscle type (alpha1)2beta1gammadelta nicotine acetylcholine receptor (unknown origin) after 90 mins by radioligand displacement assay; set-up: species or system Tetronarce californica
Mus musculus [4] = assay: Antinociceptive activity in sc dosed ICR mouse administered 5 mins prior to testing by tail-flick method; format: functional
[5] = target: T2, Neuronal acetylcholine receptor subunit alpha-7; assay: Displacement of [3H]-MLA from alpha7 nicotine acetylcholine receptor in rat brain minus cerebellum after 60 mins by scintillation counting analysis; format: tissue-based
Mus musculus [6] = assay: Antinociceptive activity in ip dosed mouse administered 30 mins prior to testing by hot plate test; format: functional
[7] = target: T1, Neuronal acetylcholine receptor; alpha4/beta2; assay: Displacement of [3H]-nicotine from alpha4beta2 nicotine acetylcholine receptor in rat brain membranes after 90 mins by liquid scintillation spectrometric analysis; format: cell membranes, Membrane

T1 sequence (P09483 whole entry): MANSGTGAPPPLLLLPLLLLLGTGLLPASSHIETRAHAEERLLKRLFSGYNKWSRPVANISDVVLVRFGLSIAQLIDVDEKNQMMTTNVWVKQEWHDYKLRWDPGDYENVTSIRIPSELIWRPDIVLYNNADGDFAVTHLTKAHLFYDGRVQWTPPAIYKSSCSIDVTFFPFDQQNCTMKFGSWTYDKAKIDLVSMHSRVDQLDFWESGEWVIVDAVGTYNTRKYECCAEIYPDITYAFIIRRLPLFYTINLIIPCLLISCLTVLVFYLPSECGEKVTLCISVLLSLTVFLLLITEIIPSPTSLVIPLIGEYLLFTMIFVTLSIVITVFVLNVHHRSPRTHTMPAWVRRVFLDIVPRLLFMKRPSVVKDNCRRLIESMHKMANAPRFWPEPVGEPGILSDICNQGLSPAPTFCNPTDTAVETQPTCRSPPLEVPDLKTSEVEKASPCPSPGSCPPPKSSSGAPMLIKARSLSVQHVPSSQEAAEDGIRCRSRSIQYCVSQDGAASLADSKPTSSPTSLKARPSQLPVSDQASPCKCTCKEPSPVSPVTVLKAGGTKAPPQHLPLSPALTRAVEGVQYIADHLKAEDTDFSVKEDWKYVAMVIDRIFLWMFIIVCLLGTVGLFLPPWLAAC
T1 sequence (P12390 whole entry): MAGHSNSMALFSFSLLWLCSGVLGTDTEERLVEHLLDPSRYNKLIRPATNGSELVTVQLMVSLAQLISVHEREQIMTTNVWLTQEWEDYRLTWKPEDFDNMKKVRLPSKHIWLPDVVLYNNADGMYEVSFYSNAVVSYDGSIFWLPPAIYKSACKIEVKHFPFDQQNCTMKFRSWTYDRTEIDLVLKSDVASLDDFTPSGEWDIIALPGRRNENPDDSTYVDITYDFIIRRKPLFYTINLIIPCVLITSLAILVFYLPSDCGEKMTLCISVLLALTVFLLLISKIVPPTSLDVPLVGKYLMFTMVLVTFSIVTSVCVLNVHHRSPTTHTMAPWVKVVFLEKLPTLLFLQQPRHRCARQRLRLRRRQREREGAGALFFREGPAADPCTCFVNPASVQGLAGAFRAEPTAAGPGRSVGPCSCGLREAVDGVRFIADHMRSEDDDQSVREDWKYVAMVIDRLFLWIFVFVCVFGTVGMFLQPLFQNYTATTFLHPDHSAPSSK

Q: What does the source list for `CN(C)CCOc1cncc(-c2cncc(OCCN(C)C)c2)c1`?
A: Ki [1]: 290 nM; Ki [2]: > 1000 nM; Ki [3]: 905 nM

Q: Which Ki [1] does the source give for `CN(C)CCOc1cncc(N2CCC(O)CC2)c1` here?
A: 613 nM

Q: And the Ki [2]?
A: > 1000 nM

Q: Which ED50 (Mus musculus [4]) does the source give for `CN(C)CCOc1cccnc1` here?
A: 15 mg/kg

Q: With `CN(C)CCOc1cncc(N2CCCN(C)CC2)c1` as the compound, how does the Ki [1] read?
A: 212 nM

Q: Which results are given for `CN(C)CCOc1cncc(N2CC3CNCC(C3)C2)c1`?
A: Ki [1]: 0.188 nM; Ki [2]: > 1000 nM; Ki [3]: > 1000 nM

Q: With `CN(C)CCOc1cc(F)cc(N2CCNCC2)c1` as the compound, how does the Ki [1] read?
A: > 1000 nM

Q: With `CN(C)CCOc1cc(F)cc(N2CCCNCC2)c1` as the compound, how does the Ki [1] read?
A: > 1000 nM

Q: Which Ki [5] does the source give for `CCN(CC)CCOc1ccc2c(c1)C(=O)c1cc(OCCN(CC)CC)ccc1-2` [TILORONE] here?
A: 110 nM

Q: Which Ki [1] does the source give for `CN(C)CCOc1cncc(N2CCNCC2)c1` here?
A: 145 nM

Q: What about the Ki [2] of the same compound?
A: > 1000 nM

Q: And the Ki [3]?
A: > 1000 nM

Q: What does the source list for `CN(C)CCOc1cncc(N2CCCCC2)c1`?
A: Ki [1]: > 1000 nM; Ki [2]: > 1000 nM

Q: For `CN(C)CCOc1cncc(N2CCN(C)CC2)c1`, which Ki [1] is on record?
A: 66.8 nM

Q: And the Ki [2]?
A: > 1000 nM

Q: What about the Ki [3] of the same compound?
A: > 1000 nM

Q: Which Ki [1] does the source give for `CN(C)CCOc1cncc(N2CCCNCC2)c1` here?
A: 6.9 nM

Q: What about the Ki [2] of the same compound?
A: > 1000 nM

Q: What about the Ki [3] of the same compound?
A: > 1000 nM

Q: With `CN(C)CCOc1cc(N2CCCNCC2)cc(F)c1F` as the compound, how does the Ki [1] read?
A: > 1000 nM

Q: For `c1cncc(N2CC3CNCC(C3)C2)c1`, which MED (Mus musculus [6]) is on record?
A: 1.9 µmol/kg

Q: Which Ki [1] does the source give for `CN(C)CCOc1cc(N2CCCN(C)CC2)cc(F)c1F` here?
A: > 1000 nM

Q: For `CN(C)CCOc1cc(F)cc(N2CCCN(C)CC2)c1`, which Ki [1] is on record?
A: > 1000 nM

Q: Which Ki [7] does the source give for `CN1CCCC1c1cncc(C2CCCN2C)c1` (stereo not given) here?
A: 1180 nM

Q: For `CN(C)CCOc1cncc(N2CCCC2)c1`, which Ki [1] is on record?
A: > 1000 nM

Q: And the Ki [2]?
A: > 1000 nM

Q: With `CN(C)CCOc1cc(F)cc(N2CCN(C)CC2)c1` as the compound, how does the Ki [1] read?
A: > 1000 nM

Q: Which results are given for `CN(C)CCOc1cncc(N2CCC2)c1`?
A: Ki [1]: 784 nM; Ki [2]: > 1000 nM

Q: For `CN(C)CCOc1cncc(N2CCOCC2)c1`, which Ki [1] is on record?
A: > 1000 nM

Q: With `CN(C)CCOc1cc(N2CCNCC2)cc(F)c1F` as the compound, how does the Ki [1] read?
A: > 1000 nM

Q: Which Ki [1] does the source give for `CN(C)CCOc1cc(N2CCN(C)CC2)cc(F)c1F` here?
A: > 1000 nM

Q: With `CN(C)CCOc1cc(F)cc(N2CC3CNCC(C3)C2)c1` as the compound, how does the Ki [1] read?
A: 186 nM

Q: And the Ki [2]?
A: > 1000 nM

Q: What about the Ki [3] of the same compound?
A: > 1000 nM
